Experimental data: the supplement of paper PMC10307832

Tests used:
Assay in all cases: relative viability (nuclei count vs DMSO), 5 days (fraction); higher = more cells survive
[1] = compound: C1=CC=C2C(=C1)N=C(S2)C(C#N)C3=NC(=NC=C3)NCCC4=CN=CC=C4 + NC(=O)Nc1cc(-c2cccc(F)c2)sc1C(=O)N[C@H]1CCCNC1 [AZD7762] (partner 0.2 µM)
Procedure, shortened: (§1)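 One day after seeding in 1536-well plates, lung cancer cell lines were dosed by pin tool. Dosing was either single-drug or a fixed anchor-drug dose plus five library-drug doses (not always all listed) in √10 steps. After 5 days, nuclei were stained in one fix-and-stain step and counted on 4× images, and relative viability is the nuclei count of treated wells over that of vehicle wells, given as the median of duplicate plates.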

CUDC-101 + Trametinib = compound: C#Cc1cccc(Nc2ncnc3cc(OC)c(OCCCCCCC(=O)NO)cc23)c1 [CUDC-101] + CC(=O)Nc1cccc(-n2c(=O)n(C3CC3)c(=O)c3c(Nc4ccc(I)cc4F)n(C)c(=O)c(C)c32)c1 [Trametinib] (partner 0.02 µM)
Procedure, shortened: as §1

CUDC-101 + Crizotinib = compound: C#Cc1cccc(Nc2ncnc3cc(OC)c(OCCCCCCC(=O)NO)cc23)c1 [CUDC-101] + C[C@@H](Oc1cc(-c2cnn(C3CCNCC3)c2)cnc1N)c1c(Cl)ccc(F)c1Cl [Crizotinib] (partner 1 µM)
Procedure, shortened: as §1

[2] = compound: C1=CC=C2C(=C1)N=C(S2)C(C#N)C3=NC(=NC=C3)NCCC4=CN=CC=C4 + CC(=O)c1c(C)c2cnc(Nc3ccc(N4CCNCC4)cn3)nc2n(C2CCCC2)c1=O [Palbociclib] (partner 0.5 µM)
Procedure, shortened: as §1

Row | Cell Line | relative viability ([1]; first compound 0.005 µM) | relative viability ([1]; first compound 0.01581 µM) | relative viability ([1]; first compound 0.05 µM) | relative viability ([1]; first compound 0.1581 µM) | relative viability ([1]; first compound 0.5 µM) | relative viability (CUDC-101 + Trametinib; first compound 0.01 µM) | relative viability (CUDC-101 + Trametinib; first compound 0.03162 µM) | relative viability (CUDC-101 + Trametinib; first compound 0.1 µM) | relative viability (CUDC-101 + Trametinib; first compound 0.3162 µM) | relative viability (CUDC-101 + Trametinib; first compound 1 µM) | relative viability (CUDC-101 + Crizotinib; first compound 0.01 µM) | relative viability (CUDC-101 + Crizotinib; first compound 0.03162 µM) | relative viability (CUDC-101 + Crizotinib; first compound 0.1 µM) | relative viability (CUDC-101 + Crizotinib; first compound 0.3162 µM) | relative viability (CUDC-101 + Crizotinib; first compound 1 µM) | relative viability ([2]; first compound 0.005 µM) | relative viability ([2]; first compound 0.01581 µM) | relative viability ([2]; first compound 0.05 µM) | relative viability ([2]; first compound 0.1581 µM) | relative viability ([2]; first compound 0.5 µM)
1 | EMC-BAC-2 | 1.13 | 1.04 | 0.945 | 1.22 | 0.875 | 0.918 | 0.811 | 0.864 | 0.779 | 0.479 | 0.726 | 0.76 | 0.732 | 0.571 | 0.388 | 0.461 | 0.533 | 0.487 | 0.555 | 0.486
2 | NCI-H1437 | 1.12 | 1.12 | 1.11 | 1.13 | 0.968 | 0.54 | 0.528 | 0.498 | 0.468 | 0.263 | 1.13 | 0.862 | 0.963 | 0.941 | 0.916 | 0.372 | 0.329 | 0.327 | 0.312 | 0.304
3 | NCI-H1944 | 0.541 | 0.557 | 0.603 | 0.466 | 0.456 | 0.375 | 0.422 | 0.415 | 0.388 | 0.373 | 1.07 | 1.09 | 0.954 | 0.918 | 0.491 | 0.314 | 0.373 | 0.293 | 0.32 | 0.318
4 | NCI-H838 | 0.889 | 0.891 | 0.907 | 0.92 | 0.836 | 0.579 | 0.504 | 0.544 | 0.591 | 0.423 | 0.87 | 0.74 | 0.832 | 0.669 | 0.382 | 0.223 | 0.211 | 0.216 | 0.214 | 0.213
5 | HCC-827 | 0.201 | 0.176 | 0.225 | 0.235 | 0.19 | 0.53 | 0.257 | 0.18 | 0.183 | 0.147 | 0.966 | 0.501 | 0.298 | 0.218 | 0.174 | 0.415 | 0.597 | 0.432 | 0.492 | 0.512
6 | NCI-H2342 | 0.546 | 0.484 | 0.49 | 0.583 | 0.467 | 0.789 | 0.947 | 0.814 | 0.819 | 0.777 | – | – | – | – | – | 0.481 | 0.513 | 0.52 | 0.501 | 0.557
7 | LOU-NH91 | 0.687 | 0.758 | 0.734 | 0.798 | 0.724 | 0.804 | 0.727 | 0.738 | 0.831 | 0.738 | 0.701 | 0.605 | 0.699 | 0.521 | 0.539 | 0.545 | 0.552 | 0.477 | 0.563 | 0.543
8 | NCI-H3122 | 0.975 | 1.16 | 0.96 | 1 | 1 | 0.201 | 0.224 | 0.198 | 0.243 | 0.228 | 0.265 | 0.282 | 0.271 | 0.317 | 0.265 | 0.162 | 0.208 | 0.199 | 0.184 | 0.178
9 | NCI-H1563 | – | – | – | – | – | – | – | – | – | – | 0.721 | 0.874 | 0.891 | 0.791 | 0.68 | – | – | – | – | –
10 | NCI-H1734 | 0.443 | 0.658 | 0.615 | 0.566 | 0.514 | 0.694 | 0.594 | 0.761 | 0.786 | 0.523 | 0.778 | 0.699 | 0.566 | 0.583 | 0.397 | 0.303 | 0.313 | 0.307 | 0.355 | 0.33
11 | EPLC-272H | 0.307 | 0.243 | 0.254 | 0.25 | 0.21 | 0.279 | 0.258 | 0.26 | 0.265 | 0.229 | 0.904 | 0.904 | 0.86 | 0.751 | 0.582 | 0.358 | 0.32 | 0.317 | 0.284 | 0.304
12 | RERF-LC-KJ | 0.984 | 0.977 | 1.02 | 1.23 | 0.964 | 0.908 | 0.955 | 0.865 | 0.775 | 0.672 | 0.771 | 0.903 | 0.788 | 0.825 | 0.686 | 0.977 | 1.13 | 1.05 | 1.12 | 1.01
13 | EBC-1 | – | – | – | – | – | – | – | – | – | – | 0.17 | 0.182 | 0.202 | 0.147 | 0.127 | – | – | – | – | –
14 | HARA | 0.2 | 0.358 | 0.38 | 0.275 | 0.356 | 0.417 | 0.487 | – | 0.356 | 0.235 | 0.904 | 0.866 | 0.89 | 0.799 | 0.395 | 0.298 | 0.235 | 0.229 | 0.257 | 0.365
15 | NCI-H1651 | 0.428 | 0.463 | 0.533 | 0.509 | 0.471 | 0.863 | 0.786 | 0.806 | 0.845 | 0.8 | 0.91 | 0.803 | 0.91 | 0.934 | 0.813 | 0.473 | 0.518 | 0.535 | 0.539 | 0.504
16 | NCI-H2405 | 0.705 | 0.66 | 0.832 | 0.829 | 0.48 | 0.682 | 0.558 | 0.658 | 0.779 | 0.551 | 0.809 | 0.788 | 0.843 | 0.924 | 0.765 | 0.462 | 0.572 | 0.543 | 0.533 | 0.461
17 | NCI-H596 | 0.985 | 1.31 | 1 | 1.2 | 1.09 | 0.817 | 0.776 | 0.848 | 0.874 | 0.801 | 0.675 | 1 | 1.01 | 0.979 | 0.536 | – | – | – | – | –
18 | NCI-H2009 | – | – | – | – | – | 0.307 | 0.245 | 0.274 | 0.34 | 0.292 | 1.02 | 0.992 | 1.11 | 0.991 | 1.03 | 0.223 | 0.168 | 0.215 | 0.229 | 0.206
